Here are results for 31 molecules from patent publication US11998539B2, “Substituted aminoquinolones as DGKalpha inhibitors for immune activation” (Bayer Aktiengesellschaft, priority 2019, dated 2024).

The target in the experiment is DGKα (Homo sapiens (Human), UniProt P23743). As to the kind of experiment: Human DGKα kinase activity inhibition assay (ADP-Glo). To be noted: recombinant full-length human DGKα, 55 μM ATP, 7 μM 1,2-dioleoyl-sn-glycerol, read-out: IC50 values of examples in in vitro human DGKa kinase activity inhibition assays. The format is biochemical. The method, boiled down: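 Activity was measured as ADP production, detected by luciferase luminescence after removal of unused ATP. The enzyme was baculovirus-expressed full-length human DGKα with a C-terminal FLAG tag. The substrate was 1,2-dioleoyl-sn-glycerol in detergent micelles, and compounds came from 100× DMSO solutions.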
Sequence of DGKα (P23743 other isoform, or with tags, fused parts or gaps): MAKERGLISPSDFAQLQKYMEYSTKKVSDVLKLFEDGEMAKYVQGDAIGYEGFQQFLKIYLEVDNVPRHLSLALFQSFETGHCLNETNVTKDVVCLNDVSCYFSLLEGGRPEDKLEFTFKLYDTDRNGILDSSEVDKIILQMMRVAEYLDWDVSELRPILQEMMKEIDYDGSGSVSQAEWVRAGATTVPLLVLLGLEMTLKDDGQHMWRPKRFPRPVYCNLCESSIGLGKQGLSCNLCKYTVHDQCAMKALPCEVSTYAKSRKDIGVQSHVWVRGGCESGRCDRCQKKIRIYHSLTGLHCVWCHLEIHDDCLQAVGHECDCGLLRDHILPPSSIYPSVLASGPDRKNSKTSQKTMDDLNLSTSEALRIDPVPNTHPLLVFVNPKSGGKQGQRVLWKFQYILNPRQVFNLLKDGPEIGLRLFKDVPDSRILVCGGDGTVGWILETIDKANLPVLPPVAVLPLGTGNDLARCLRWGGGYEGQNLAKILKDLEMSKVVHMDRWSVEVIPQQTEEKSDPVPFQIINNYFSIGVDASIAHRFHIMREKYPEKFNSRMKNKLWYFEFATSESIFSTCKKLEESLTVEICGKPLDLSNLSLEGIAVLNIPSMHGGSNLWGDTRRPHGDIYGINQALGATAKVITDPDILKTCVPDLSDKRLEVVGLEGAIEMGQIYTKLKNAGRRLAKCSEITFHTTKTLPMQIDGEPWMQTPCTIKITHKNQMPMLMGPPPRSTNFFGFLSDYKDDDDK
Background: ADP-Glo first removes unused ATP, then detects ADP through luciferase.
Consider `Cc1ccc2oc(C3(C)CCN(c4c(C#N)c(=O)n(C)c5ccc(OC6CC6)cc45)CC3)nc2c1` [Example 274, 6-(cyclopropyloxy)-1-methyl-4-[4-methyl-4-(5-methyl-1,3-benzoxazol-2-yl)piperidin-1-yl]-2-oxo-1,2-dihydroquinoline-3-carbonitrile], for which the IC50 (in general, the midpoint of a concentration-inhibition curve) came to 152 nM.
Turning to `Cn1c(=O)c(C(N)=O)c(N2CCC(c3ccn(-c4cccc(Cl)c4)n3)CC2)c2ccccc21` [Example 474, 4-{4-[1-(3-chlorophenyl)-1H-pyrazol-3-yl]piperidin-1-yl}-1-methyl-2-oxo-1,2-dihydroquinoline-3-carboxamide], the 50% inhibitory concentration (IC50) was 4.6 nM.
Regarding `COC1(c2cc3ccccc3s2)CCN(c2c(C(N)=O)c(=O)n(C)c3ccccc23)CC1` [Example 455, 4-[4-(1-benzothiophen-2-yl)-4-methoxypiperidin-1-yl]-1-methyl-2-oxo-1,2-dihydroquinoline-3-carboxamide], the IC50 stood at 1.9 nM.
The result for `Cn1c(=O)c(C#N)c(N2CCC(C)(c3nc4ccccc4o3)CC2)c2ccc(C(F)(F)F)cc21` [Example 292, 4-[4-(1,3-benzoxazol-2-yl)-4-methylpiperidin-1-yl]-1-methyl-2-oxo-7-(trifluoromethyl)-1,2-dihydroquinoline-3-carbonitrile] reads 3.2 nM; that for `Cn1c(=O)c(C(N)=O)c(N2CCC(O)(c3cc4ccccc4s3)CC2)c2ccccc21` [Example 456, 4-[4-(1-benzothiophen-2-yl)-4-hydroxypiperidin-1-yl]-1-methyl-2-oxo-1,2-dihydroquinoline-3-carboxamide], 41 nM; that for `Cc1ccc(-c2nnc(C3CCN(c4c(C(N)=O)c(=O)n(C)c5ccccc45)CC3)o2)cc1` [Example 462, 1-methyl-4-{4-[5-(4-methylphenyl)-1,3,4-oxadiazol-2-yl]piperidin-1-yl}-2-oxo-1,2-dihydroquinoline-3-carboxamide], 121 nM.
As for `Cn1c(=O)c(C#N)c(N2CCC(O)(c3ccc(Cl)cc3)CC2)c2ccccc21` [Example 151, 4-[4-(4-chlorophenyl)-4-hydroxypiperidin-1-yl]-1-methyl-2-oxo-1,2-dihydroquinoline-3-carbonitrile], the 50% inhibitory concentration (IC50) came to 486 nM.
The result for `Cc1ccc2oc(C3CCN(c4c(C#N)c(=O)n(C)c5cc(Br)ccc45)CC3)nc2c1` [Example 281, 7-bromo-1-methyl-4-[4-(5-methyl-1,3-benzoxazol-2-yl)piperidin-1-yl]-2-oxo-1,2-dihydroquinoline-3-carbonitrile] reads 8.9 nM; that for `COCCc1ccc2oc(C3CCN(c4c(C(N)=O)c(=O)n(C)c5ccccc45)CC3)nc2c1` [Example 295, 4-{4-[5-(2-methoxyethyl)-1,3-benzoxazol-2-yl]piperidin-1-yl}-1-methyl-2-oxo-1,2-dihydroquinoline-3-carboxamide], 9.5 nM.
The result for `Cn1c(=O)c(C#N)c(N2CCC(c3ccc4c(c3)C(C)(C)CN4)CC2)c2ccccc21` [Example 356, 4-[4-(3,3-dimethyl-2,3-dihydro-1H-indol-5-yl)piperidin-1-yl]-1-methyl-2-oxo-1,2-dihydroquinoline-3-carbonitrile] reads 5.1 nM; that for `Cc1ccc2oc(C3CCN(c4c(C#N)c(=O)n(C)c5cc(N(C)C6COC6)ccc45)CC3)nc2c1` [Example 398, 1-methyl-4-[4-(5-methyl-1,3-benzoxazol-2-yl)piperidin-1-yl]-7-[methyl(oxetan-3-yl)amino]-2-oxo-1,2-dihydroquinoline-3-carbonitrile], 1.7 nM.
Regarding `Cn1c(=O)c(C(N)=O)c(N2CCC(c3nc(-c4cccnc4)no3)CC2)c2ccccc21` [Example 475, 1-methyl-2-oxo-4-{4-[3-(pyridin-3-yl)-1,2,4-oxadiazol-5-yl]piperidin-1-yl}-1,2-dihydroquinoline-3-carboxamide], the IC50 was found to be 224 nM.
Take `COc1ccc2oc(C3CCN(c4c(C(N)=O)c(=O)n(C)c5ccccc45)CC3)nc2c1` [Example 486, 4-[4-(5-methoxy-1,3-benzoxazol-2-yl)piperidin-1-yl]-1-methyl-2-oxo-1,2-dihydroquinoline-3-carboxamide]: the half-maximal inhibitory concentration (IC50) is 5.6 nM.
Then `Cc1ccc2oc(C3(C)CCN(c4c(C#N)c(=O)n(C)c5ccc(N6C[C@H](O)CC6=O)cc45)CC3)nc2c1` [Example 277, 6-[(4R)-4-hydroxy-2-oxopyrrolidin-1-yl]-1-methyl-4-[4-methyl-4-(5-methyl-1,3-benzoxazol-2-yl)piperidin-1-yl]-2-oxo-1,2-dihydroquinoline-3-carbonitrile], with 243 nM; and `Cn1c(=O)c(C#N)c(N2CCC(c3nc4ccccc4o3)CC2)c2cccc(F)c21` [Example 155, 4-[4-(1,3-benzoxazol-2-yl)piperidin-1-yl]-8-fluoro-1-methyl-2-oxo-1,2-dihydroquinoline-3-carbonitrile], with 60 nM; and `Cn1c(=O)c(C#N)c(N2CCC(c3cccc(S(C)(=O)=O)c3)CC2)c2ccccc21` [Example 80, 4-{4-[3-(methanesulfonyl)phenyl]piperidin-1-yl}-1-methyl-2-oxo-1,2-dihydroquinoline-3-carbonitrile], with 333 nM.
The result for `Cc1ccc2oc(C3CCN(c4c(C#N)c(=O)n(C)c5cc(OC6CCOC6)ccc45)CC3)nc2c1` (single isomer, unassigned) [Example 380, 1-methyl-4-[4-(5-methyl-1,3-benzoxazol-2-yl)piperidin-1-yl]-2-oxo-7-[(oxolan-3-yl)oxy]-1,2-dihydroquinoline-3-carbonitrile] reads 0.4 nM; that for `COc1ccccc1C1CCN(c2c(C#N)c(=O)n(C)c3ccccc23)CC1` [Example 52, 4-[4-(2-methoxyphenyl)piperidin-1-yl]-1-methyl-2-oxo-1,2-dihydroquinoline-3-carbonitrile], 8.8 nM.
The result for `Cc1ccc2oc(C3CCN(c4c(C#N)c(=O)n(C)c5cc(P(C)(C)=O)ccc45)CC3)nc2c1` [Example 282, 7-(dimethylphosphoryl)-1-methyl-4-[4-(5-methyl-1,3-benzoxazol-2-yl)piperidin-1-yl]-2-oxo-1,2-dihydroquinoline-3-carbonitrile] reads 872 nM; that for `Cn1c(=O)c(C#N)c(N2CCC(c3cccc(N=S(C)(C)=O)c3)CC2)c2ccccc21` [Example 69, 4-[4-(3-{[dimethyl(oxo)-A6-sulfanylidene]amino}phenyl)piperidin-1-yl]-1-methyl-2-oxo-1,2-dihydroquinoline-3-carbonitrile], 105 nM; that for `CNC(=O)c1c(N2CCC(c3nc4ccccc4o3)CC2)c2ccccc2n(C)c1=O` [Example 447, 4-[4-(1,3-benzoxazol-2-yl)piperidin-1-yl]-N,1-dimethyl-2-oxo-1,2-dihydroquinoline-3-carboxamide], 63 nM.
Consider `Cn1c(=O)c(C#N)c(N2CCC(C)(c3cc4ccccc4s3)CC2)c2ccccc21` [Example 342, 4-[4-(1-benzothiophen-2-yl)-4-methylpiperidin-1-yl]-1-methyl-2-oxo-1,2-dihydroquinoline-3-carbonitrile], for which the IC50 was 2.9 nM.
Take `Cc1ccc2oc(C3CCN(c4c(C(N)=O)c(=O)n(C)c5cc(O)c(Br)cc45)CC3)nc2c1` [Example 511, 6-bromo-7-hydroxy-1-methyl-4-[4-(5-methyl-1,3-benzoxazol-2-yl)piperidin-1-yl]-2-oxo-1,2-dihydroquinoline-3-carboxamide]: the IC50 worked out at 1.5 nM.
On to `Cn1c(=O)c(C(N)=O)c(N2CCC(c3nc4cc(F)c(F)cc4o3)CC2)c2ccccc21` [Example 109, 4-[4-(5,6-difluoro-1,3-benzoxazol-2-yl)piperidin-1-yl]-1-methyl-2-oxo-1,2-dihydroquinoline-3-carboxamide], for which the IC50 amounted to 2.1 nM.
The result for `CC(C)Oc1ccc(C2CCN(c3c(C(N)=O)c(=O)n(C)c4ccccc34)CC2)cc1` [Example 102, 1-methyl-2-oxo-4-(4-{4-[(propan-2-yl)oxy]phenyl}piperidin-1-yl)-1,2-dihydroquinoline-3-carboxamide] reads 0.3 nM.
The result for `COc1cc2c(cc1C)c(N1CCC(c3nc4cc(C)ccc4o3)CC1)c(C#N)c(=O)n2C` [Example 419, 7-methoxy-1,6-dimethyl-4-[4-(5-methyl-1,3-benzoxazol-2-yl)piperidin-1-yl]-2-oxo-1,2-dihydroquinoline-3-carbonitrile] reads 4.6 nM; that for `Cc1ccc2oc(C3CCN(c4c(C#N)c(=O)n(C)c5cc(OCC6CCOC6)c(Cl)cc45)CC3)nc2c1` (racemic) [Example 572, (rac)-6-chloro-1-methyl-4-[4-(5-methyl-1,3-benzoxazol-2-yl)piperidin-1-yl]-2-oxo-7-[(oxolan-3-yl)methoxy]-1,2-dihydroquinoline-3-carbonitrile], 1.5 nM; that for `Cc1cccc(-c2nnc(C3CCN(c4c(C(N)=O)c(=O)n(C)c5ccccc45)CC3)o2)c1` [Example 463, 1-methyl-4-{4-[5-(3-methylphenyl)-1,3,4-oxadiazol-2-yl]piperidin-1-yl}-2-oxo-1,2-dihydroquinoline-3-carboxamide], 113 nM.
Regarding `Cc1ccc2c(N3CCC(c4nc5ccccc5s4)CC3)c(C#N)c(=O)n(C)c2c1` [Example 222, 4-[4-(1,3-benzothiazol-2-yl)piperidin-1-yl]-1,7-dimethyl-2-oxo-1,2-dihydroquinoline-3-carbonitrile], the IC50 was 5.2 nM.
Then `COc1ccc2c(N3CCC(c4nc5cc(Cl)ccc5o4)CC3)c(C#N)c(=O)n(C)c2c1` [Example 259, 4-[4-(5-chloro-1,3-benzoxazol-2-yl)piperidin-1-yl]-7-methoxy-1-methyl-2-oxo-1,2-dihydroquinoline-3-carbonitrile], with 29 nM.
Consider `Cc1nc2cc(C3CCN(c4c(C#N)c(=O)n(C)c5ccccc45)CC3)ccc2o1` [Example 345, 1-methyl-4-[4-(2-methyl-1,3-benzoxazol-5-yl)piperidin-1-yl]-2-oxo-1,2-dihydroquinoline-3-carbonitrile], for which the IC50 was found to be 38 nM.
